Assay results reported in paper PMC8049018, “A MIF‐Derived Cyclopeptide that Inhibits MIF Binding and Atherogenic Signaling via the Chemokine Receptor CXCR2” (Chembiochem, 2020).
Bridge positions count the residues as written; N and C are the ends. Ends that are not written are not given here. Peptide text beside a SMILES is read from it. Fluos = 5(6)-carboxyfluorescein

Key:
[1] = CD concentration dependence study; type: physicochemical; conditions: between 5 and 100 μM
Description: Peptides: Linear MIF‐derived peptides were generated by standard Fmoc‐based solid phase peptide synthesis (SPPS) in their N‐terminally acetylated and C‐terminally amidated forms and purified by reversed‐phase (RP)‐HPLC as previously described. ^[18] 5(6)‐Carboxyfluorescein (Fluos) N‐terminally labeled peptides were synthesized as described. ^[19] Peptide purity was verified by matrix‐assisted laser desorption ionization mass spectrometry (MALDI‐MS). Cyclic peptide derivatives MIF(cyclo0), MIF(cyclo4), MIF(cyclo6), and MIF(cyclo10), containing terminal cysteines and different numbers of glycine and serine spacer residues to tailor ring size, were custom‐synthesized and purified (>96 % purity grade) by American Peptide Company (APC), Inc./Bachem (Bubendorf, Switzerland), or as described previously, ^[20] applying standard disulfide‐based oxidation procedures. […] The sequence of the scrambled control peptide of MIF(47–56) is […].
Circular dichroism spectroscopy: CD spectra were recorded on a Jasco J‐715 spectropolarimeter in a wavelength range between 190 and 250 nm. Spectra were measured at 0.1 nm intervals and a response time of 1 s. […] Each spectrum was measured three times, averaged and smoothed after background subtraction of the buffer. […]

[2] = target: T1, Alexa‐488‐labeled recombinant MIF (Alexa‐MIF) (Homo sapiens, UniProt P14174); test: Fluorescence spectroscopic titration of Alexa-MIF with peptide; type: binding; conditions: Alexa-MIF 10 nM, peptide 0.1- to 1000-fold molar excess, 10 mM sodium phosphate pH 7.4, 1 % HFIP, RT, emission at 519 nm, three titrations
T1 construct: made in house
T1 sequence (P14174 1-115): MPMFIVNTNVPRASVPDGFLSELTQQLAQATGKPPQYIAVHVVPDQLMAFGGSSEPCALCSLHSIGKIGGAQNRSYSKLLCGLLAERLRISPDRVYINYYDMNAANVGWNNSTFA
Method: Fluorescence spectroscopy: Fluorescence spectroscopic titrations were performed on a Jasco FP‐6500 spectrofluorometer. Alexa Fluor‐488‐labelled rMIF (Alexa‐MIF) was reconstituted in 20 mM sodium phosphate buffer (pH 7.2). […] The excitation wavelength was set at 492 nm and fluorescence emission spectra were recorded between 500 and 600 nm within 2–3 min after the preparation of the mixtures at room temperature (RT).

[3] = tested on: Primary human monocytes (MIF/CXCR2 axis); test: Transwell migration assay, MIF-induced monocyte chemotaxis; type: cell-based; conditions: peptide 5 μM, human MIF 8 nM, Transwell 5 μm pores, 3 h, 37 °C, n=3–11
Method: Transwell migration assay: The inhibitory potential of the MIF‐derived peptide analogues was measured by Transwell chemotaxis assay using CD14^+ monocytes isolated from PBMCs or the entire PBMC fraction, as previously described. ^[7a] Briefly, PBMCs from buffy coats or CD14+ monocytes isolated from PBMCs were diluted in RPMI1640 supplemented with 0.5 % bovine serum albumin (BSA) at a density of […] cells/mL. Cells were placed into the upper chamber of a 24‐well cell culture inserts with 5 μm pore size (Corning). 8 nM full‐length MIF served as chemoattractant and was pre‐incubated with or without 5 μM of the respective peptides and applied to the lower chamber. After a 3 h migration interval at 37 °C (5 % CO2), cells were collected and counted via a CASY Cell Counter (OLS, OMNI Life Science, Bremen, Germany).

[4] = Proteolytic stability assay in human plasma; type: in vitro ADME; conditions: 37 °C; for half-life: human plasma (citrate-anticoagulated), human plasma (citrate 10 mM, pH 7.0), peptide 200–500 μg/mL, TCA stop, intact peptide by C18 RP-HPLC (214 nm) peak area, MALDI-MS verified, three independent incubations, read-out: t1/2 in human blood plasma (converted)
Method: Proteolytic stability assay: Proteolytic stability studies of peptides were performed following a previously described experimental protocol.[ ^20 , ^23 ] Briefly, peptides were incubated (200–500 μg/mL) in human plasma, isolated from the blood of healthy volunteers by routine methods using citrate (10 mM, pH 7.0) as an anti‐coagulant, at 37 °C for various time intervals. At the end of each interval, a stop solution (1 : 1) containing aqueous trichloroacetic acid (TCA, 10 %, v/v) was added and the samples kept on ice for 10 min. Samples were centrifuged at 20 000 g for 4 min, the supernatants retrieved and mixed 1 : 2 with a solution of 80 % HPLC buffer B (0.05 % (v/v) TFA in 90 % (v/v) CH3CN in water) and 20 % HPLC buffer A (0.058 % (v/v) TFA in water). Samples were analyzed by RP‐HPLC (detection at 214 nm) using a Nucleosil 100 C18 column (Grace; length 33 mm, i.d. 8 mm, 7 μm particle size). ^[24] The flow rate was 2 mL/min and the samples were analyzed with an elution program consisting of 2 steps; first step: 10 % HPLC buffer B in buffer A (1 min) and second step: a gradient from 10 to 90 % HPLC buffer B in buffer A (6 min). Peaks were collected, immediately frozen, lyophilized, and their molecular weights determined by MALDI‐MS. The HPLC peak areas were used to quantify remaining peptides in plasma.

CXCR2 [5] = target: T2, CXCR2 (Homo sapiens, UniProt P25025); test: Label-free dynamic mass redistribution (DMR), HEK293-CXCR2 transfectants; type: cell-based; conditions: peptide 500 μM (MIF(47–56) also 100–500 μM), 30 s intervals
T2 construct: expressed in transfected cells
T2 sequence (P25025 1-360): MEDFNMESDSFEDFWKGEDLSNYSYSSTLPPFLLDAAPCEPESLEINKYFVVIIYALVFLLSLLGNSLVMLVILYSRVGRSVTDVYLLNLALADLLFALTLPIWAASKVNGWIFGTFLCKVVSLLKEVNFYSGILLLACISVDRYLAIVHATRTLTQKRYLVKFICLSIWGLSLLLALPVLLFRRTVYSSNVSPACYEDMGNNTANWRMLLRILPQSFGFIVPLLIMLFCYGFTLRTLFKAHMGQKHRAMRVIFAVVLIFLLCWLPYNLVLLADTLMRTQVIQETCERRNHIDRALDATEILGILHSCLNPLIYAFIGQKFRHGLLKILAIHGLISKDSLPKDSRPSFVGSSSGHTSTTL
Method: Label‐free dynamic mass redistribution: Dynamic mass redistribution (DMR) analysis ^[22] was performed according to Perkin Elmer's instructions for label‐free DMR measurements. Briefly, cells were seeded at a density of 40 000 cells per well of an EnSpire label‐free 96‐well fibronectin‐coated cell assay microplate (PerkinElmer). Post‐seeding, the cells were equilibrated at RT for 30 min and cultivated overnight in serum‐containing DMEM/F‐12 medium. The next day, the cells were washed four times with assay buffer containing 20 mM HEPES and 1 % DMSO in HBSS (pH 7.4), using an aspiration wand leaving a residual volume of 35 μL. The plate was equilibrated at RT for 2 h. […] Before adding the peptides, baseline measurements were performed for 10 min (30 s intervals) using the EnSpire Label‐free Multimode Plate Reader (PerkinElmer). Then, 20 μL of the respective peptides were added to the cells at a final concentration of 500 μM followed by real‐time measurements over a time period of 40 min (30 s intervals). The signal output represents a cumulative response overlay of all cells.

CXCR2 [6] = target: T2, CXCR2; test: Receptor binding assay, flow cytometry, HEK293-CXCR2 vs HEK293-WT; conditions: 3.7 or 7.4 μM, on ice 2 h, HEK293-CXCR2 compared to non-transfected HEK293, flow cytometry, n=4–7

Ac-LMAFGGSSEP-NH2 [MIF(47–56)]
Concentration dependence of CD spectra (solubility/aggregation check) [1]: no concentration dependence of the CD spectra
Direct binding to MIF [2]: does not directly bind to MIF
Inhibition of MIF-induced monocyte chemotaxis [3]: significantly inhibited
half-life [4]: ~30 min
CXCR2-binding response (change of resonant wavelength Δpm) (CXCR2 [5]): found to bind to HEK293‐CXCR2 transfectants

Fluos‐MIF(47–56): fluorescently labeled MIF(47–56), 5(6)‐carboxyfluorescein at the N-terminus (Fluos-MAFGGSSEPC; UniProt P14174 48-57, looked up, fragment)
Binding to cell surface-expressed CXCR2 (MFI) (CXCR2 [6]): specifically bound to full‐length CXCR2

CSCC[C@@H]1NC(=O)[C@H](CC(C)C)NC(=O)CNC(=O)CNC(=O)[C@H](CO)NC(=O)CNC(=O)CNC(=O)[C@@H](N)CSSC[C@@H](C(=O)O)NC(=O)CNC(=O)CNC(=O)[C@H](CO)NC(=O)CNC(=O)CNC(=O)[C@@H]2CCCN2C(=O)[C@H](CCC(=O)O)NC(=O)[C@H](CO)NC(=O)[C@H](CO)NC(=O)CNC(=O)CNC(=O)[C@H](Cc2ccccc2)NC(=O)[C@H](C)NC1=O [MIF(cyclo10)] (H-CGGSGGLMAFGGSSEPGGSGGC-OH; disulfide 1-22)
Concentration dependence of CD spectra (solubility/aggregation check) [1]: no concentration dependence of the CD spectra
half-life [4]: > 480 min
Time up to which appreciable amounts of intact peptide were detectable ([4]; human plasma, C18 HPLC and MALDI-MS): up to 48 h
Resistance to proteolysis relative to MIF(47–56) ([4]; human plasma, ratio of t1/2): more than 16 fold

Ac-SFESGPAGML-NH2 [scrambled control sequence, reference compound]
CXCR2-binding response (change of resonant wavelength Δpm) (CXCR2 [5]): fully abrogated
